Square brackets hold non-standard residues; d marks the D form. Peptide text beside a SMILES is read from it. pGlu = O=C1CC[C@@H](C(=O)O)N1
Legend:
[1] = Stability in human plasma (LC-MS, residual peptide); type: in vitro ADME; conditions: 5 µM, 37 °C, 10, 60 and 240 minutes, FIG. 1
Method: GV2001 and GV1001 were each added to human plasma and diluted to a concentration of 5 µM, followed by incubation at 37 °C for 10, 60, and 240 minutes with stirring. The reaction mixture was collected and pretreated by plasma protein precipitation using methanol containing 0.1% formic acid. The resulting supernatants were collected and analyzed by LC-MS under the conditions shown in Table 1 below to determine the percentage of residual peptide relative to the initial peptide amount.

microglia = test: Anti-Iba-1 antibody staining of brain tissue sections (gliosis); type: in vivo; conditions: 5xFAD mice, 2 mg/kg subcutaneous, 3 times/week, 8 weeks, FIGS. 12 and 13
Method: (§1) An efficacy evaluation of GV2001 based on an Alzheimer's disease animal model was conducted according to Table 3 below.
(§2) 5xFAD mice are a well-established mouse model of Alzheimer's disease, in which amyloid-β is produced in neurons. Amyloid-β accumulation begins at approximately 2 months of age, neuronal damage progresses from around 6 months of age, and impairment in spatial learning ability develops from approximately 9 months of age. The mice were purchased from Jackson Laboratory, and seven-month-old mice obtained through breeding were used in the experiment.
Mouse brain tissue sections were stained with an anti-Iba-1 antibody, which stains microglia, to analyze the level of gliosis in the mouse brain.

Aβ1-42 = Aβ1-42 ELISA of cerebral cortex protein samples; type: in vivo; conditions: 5xFAD mice, 2 mg/kg subcutaneous, 3 times/week, 8 weeks, FIG. 6
[2] = test system: retinal pigment epithelial cells (ARPE-19); test: Reactive oxygen species detection with DCF-DA in an H2O2 cell model of age-related macular degeneration; type: cell-based; conditions: ARPE-19, H2O2 (50 µM), FIG. 14
Method: (§3) A cell model of age-related macular degeneration was established by treating the retinal pigment epithelial cell line ARPE-19 with hydrogen peroxide (H2O2) to generate reactive oxygen species.
(§4) The experimental groups were set up according to Table 4 below, and the efficacy of GV2001 was evaluated.
Using 2',7'-dichlorofluorescin diacetate (DCF-DA), a dye for detecting reactive oxygen species, changes in reactive oxygen species levels in retinal pigment epithelial cells (ARPE-19) treated with GV2001 were examined under a fluorescence microscope.

[3] = Pharmacokinetic profile after intravenous administration to rats; type: in vivo; conditions: Sprague Dawley rats, FIG. 2
Method: (§5) To determine the pharmacokinetic profile of GV2001 prepared in Example 1, plasma was collected from rats administered with GV2001. The collected plasma was pretreated by protein precipitation using nine times the volume of methanol containing 0.1% formic acid, followed by centrifugation at 16,100 g for 10 minutes.
(§6) GV2001 and GV1001 were administered intravenously (IV) to three Sprague Dawley rats in each group. Blood samples were collected at 0.033, 0.083, 0.17, 0.25, 0.5, 1, and 2 hours after administration. The collected blood samples were centrifuged to separate plasma, pretreated, and analyzed using LC-MS. Pharmacokinetic parameters were calculated using the non-compartmental analysis model of the Phoenix WinNonlin (Pharsight, ver. 6.4, USA) program.

amyloid-β = test: Immunoblot of hippocampal protein samples with anti-amyloid antibody (6E10); type: in vivo; conditions: 5xFAD mice, 2 mg/kg subcutaneous, 3 times/week, 8 weeks, FIG. 5
Method: as §1, §2
In order to determine amyloid-β levels in the brains of each group of mice, immunoblotting was performed on mouse hippocampal protein samples using an anti-amyloid antibody (6E10).

[4] = Pharmacokinetic profile after subcutaneous administration to rats; type: in vivo; conditions: subcutaneous (SC), Sprague Dawley rats; FIG. 3
Method: as §5
as §6, with “subcutaneously (SC)” for “intravenously (IV)”, “of” for “of the”, “(Pharsight” for “(Pharsight,”, “USA).” for “USA) program.”

[5] = test system: retinal pigment epithelial cell line ARPE-19; test: Epithelial-mesenchymal transition (cadherin 1, vimentin; confocal microscope) in an H2O2 cell model of age-related macular degeneration; type: cell-based; conditions: ARPE-19, H2O2 (50 µM), FIG. 15
Method: as §3, §4
The degree of epithelial-mesenchymal transition (EMT), which indicates retinal pigment epithelial cell degeneration, was evaluated by observing changes in cadherin 1, an epithelial cell marker, and vimentin, a mesenchymal cell marker, using a confocal microscope.

amyloid-β plaques = test: Thioflavin-S staining of brain tissue sections; type: in vivo; conditions: 5xFAD mice, 2 mg/kg subcutaneous, 3 times/week, 8 weeks
Method: as §1, §2
(§7) Mouse brain tissue sections were stained with thioflavin-S and anti-amyloid antibody (6E10) to identify amyloid-β plaques and amyloid-β protein, respectively.

IL-1β, IL-6, and TNF-α = test: qRT-PCR of inflammatory cytokine mRNA in hippocampal samples; type: in vivo; conditions: 5xFAD mice, 2 mg/kg subcutaneous, 3 times/week, 8 weeks, FIG. 7
Method: as §1, §2
mRNA levels of cytokines involved in inflammation (IL-1β, IL-6, and TNF-α) were analyzed using qRT-PCR in mouse hippocampal samples.

amyloid-β protein = test: Anti-amyloid antibody (6E10) staining of brain tissue sections; type: in vivo; conditions: 5xFAD mice, 2 mg/kg subcutaneous, 3 times/week, 8 weeks; both the cerebral cortex and hippocampus; FIGS. 10 and 11
Method: as §1, §2, §7

5xFAD mice = test: Morris Water Maze Test in an Alzheimer's disease mouse model; type: in vivo; conditions: 2 mg/kg subcutaneous, 3 times/week, 8 weeks
Method: An efficacy evaluation of GV2001 based on an Alzheimer's disease animal model was conducted according to Table 3 below. [TABLE 3] [table] 5xFAD mice are a well-established mouse model of Alzheimer's disease, in which amyloid-β is produced in neurons. Amyloid-β accumulation begins at approximately 2 months of age, neuronal damage progresses from around 6 months of age, and impairment in spatial learning ability develops from approximately 9 months of age. The mice were purchased from Jackson Laboratory, and seven-month-old mice obtained through breeding were used in the experiment. […] On day 11, a probe test was performed. […] In addition, the time spent in the target quadrant was increased in the GV1001 and GV2001 groups, confirming improvements in spatial learning ability (FIG. 4C).

[6] = H2O2 for 2 hours then post-treatment for 24 hours, high-dose group
[7] = pretreatment for 2 hours then H2O2 for 24 hours, low-dose group

## CC[C@H](C)[C@H](NC(=O)[C@H](Cc1ccccc1)NC(=O)[C@H](CCCNC(=N)N)NC(=O)[C@H](CC(C)C)NC(=O)[C@H](CCCNC(=N)N)NC(=O)[C@H](CO)NC(=O)[C@@H](NC(=O)[C@H](CC(C)C)NC(=O)[C@H](CC(C)C)NC(=O)[C@H](C)NC(=O)[C@@H]1CCCN1C(=O)[C@H](CCCNC(=N)N)NC(=O)[C@H](C)NC(=O)[C@H](CCC(=O)O)NC(=O)[C@@H]1CCC(=O)N1)[C@@H](C)O)C(=O)N1CCC[C@H]1C(=O)N[C@@H](CCCCN)C(N)=O [GV2001] ([pGlu]EARPALLTSRLRFIPK-NH2)
[1]
  percentage of residual peptide relative to the peptide amount before reaction: higher at each time point than that of GV1001
microglia
  gliosis levels (microglia staining, anti-Iba-1): more pronounced decrease in gliosis levels
Aβ1-42
  amyloid-β levels (Aβ1-42 ELISA): reduced level of amyloid-β protein
[2]; [6]
  DCF-DA fluorescence expression (reactive oxygen species): decreased
[2]; [7]
  DCF-DA fluorescence expression (reactive oxygen species): decreased
[3]
  AUCt of GV2001 relative to GV1001: more than four times higher
[3]; rat, plasma, sampling up to 2 hours
  AUC(0-t): 107 ng·h/mL
amyloid-β
  amyloid-β levels (immunoblot, 6E10): reduction
[4]
  in vivo stability (remaining in the body without degradation): greater in vivo stability than GV1001
[5]; [6]
  progression of EMT (cadherin 1, vimentin): reduced the progression of EMT
[5]; [7]
  progression of EMT (cadherin 1, vimentin): reduced the progression of EMT
amyloid-β plaques; cerebral cortex, FIG. 8
  amyloid-β plaque deposition (thioflavin-S): reduction in amyloid-β plaque deposition
amyloid-β plaques; hippocampus, FIG. 9
  amyloid-β plaque deposition (thioflavin-S): substantially reduced plaque deposition
IL-1β, IL-6, and TNF-α
  mRNA levels of cytokines involved in inflammation (IL-1β, IL-6, and TNF-α): greater reduction in cytokine expression compared to the 5xFAD group
amyloid-β protein
  amyloid-β protein levels (6E10 antibody staining): more pronounced decrease in amyloid-β protein levels
5xFAD mice; 10-day training period, FIG. 4A
  latency to locate the hidden platform: marked improvements in latency
5xFAD mice; probe test on day 11, FIG. 4B
  number of platform-zone crossings: exhibited improvements
5xFAD mice; probe test on day 11, FIG. 4C
  time spent in the target quadrant: increased

From EP4733310A1, “NOVEL PEPTIDE AND USE THEREOF” (Gemvax & Kael Co., Ltd., priority 2023, dated 2024)
